Patent publication US20100204116A1, “USE OF CALCITONIN AS ANTI-ANGIOGENIC AGENT” (priority 2007, published 2010)

How the values were obtained:
CEM-SS cells = assay: Cytotoxicity (MTS cell viability) in the HIV-1 assay; details: CEM-SS cells plus peptide only, 10 micrograms per ml
HIV-1IIIB = assay: HIV-1 antiviral assay (CPE reduction, MTS) in CEM-SS cells; details: peptide 10 micrograms per ml, 6 days post-infection
Human A549 cells [1] = assay: Apoptosis induction assay (Annexin-5); type: cell-based; details: peptide 10 micrograms per ml, 24 hours
HCMV strain AD169 = assay: HCMV plaque reduction assay in MRC-5 cells; type: cell-based; details: peptide 10 micrograms per ml, 7-10 days
Description: Ganciclovir was used as positive control.

[2] = tested on: Human Peripheral Blood Mononuclear Cells (PBMC); assay: B cell proliferation assay (SAC plus Interleukin-2, 3H-thymidine); type: cell-based; details: peptide 10 micrograms per ml
RAW 264.7 cells = assay: Phagocytosis assay (Fluorescein-labeled Escherichia coli, flow cytometry); type: cell-based, mouse; details: peptide 10 micrograms per ml
Experimental: RAW 264.7 (Mouse leukaemic monocyte macrophage cell line) cells were obtained from ATCC and grown in RPMI 1640 medium containing 10% FBS. […] After the cells were incubated for additional 60 min at 37° C. and allowed to ingest the Fluorescein-labeled Escherichia coli bacteria, cells were fixed with 1% paraformaldehyde. The samples were then analyzed by flow cytometry to determine the amount of phagocytosis as a function of brightness (the greater the phagocytic activity, the more fluorescence in the macrophage population). Data are reported as % positive and the mean fluorescence intensity (MFI) of positively stained cells.

Human A549 cells [3] = assay: Propidium iodide cell cycle assay; type: cell-based; details: peptide 10 micrograms per ml, 24 hours
[4] = tested on: Human Peripheral Blood Mononuclear Cells (PBMC); assay: T cell proliferation assay (PHA, 3H-thymidine); type: cell-based; details: peptide 10 micrograms per ml
spleen cells = assay: Th1/Th2 cytokine profiling assay (Ovalbumin-restimulated spleen cells, CBA kit); type: cell-based, Balb/c mice; details: peptide 10 micrograms per ml; Ovalbumin restimulation; 72 hours
[5] = Cytotoxicity (CellTiter 96 cell viability) in the HCMV assay; details: human, MRC-5 cells (human embryonal lung fibroblasts)
Human A549 cells [6] = assay: Apoptosis prevention assay (C2 ceramide, Annexin-5); type: cell-based; details: A549 cells pretreated 30 min with peptide 10 micrograms per ml, then C2 ceramide
HUVEC = assay: Endothelial tube formation assay; type: cell-based, human; details: peptide 10 micrograms per ml, 20 hours
Description: Positive control was vehicle only.

TNF alpha = TNF alpha production assay (LPS-stimulated macrophages, ELISA); type: cell-based, human; details: peptide 10 micrograms per ml, lipopolysaccharide 200 ng/ml, overnight
Description: Not stimulated macrophages served as negative background control.

[7] = tested on: Primary Human endothelial cells (HUVEC); assay: Endothelial cell migration assay; type: cell-based; details: peptide 10 micrograms per ml, 22 hours
[8] = tested on: hepatitis B virus (HBV) ayw strain; assay: HBV experimental assay system (secreted HBV DNA, TaqMan PCR); details: peptide 10 micrograms per ml; six days; HBV DNA in supernatant
[9] = tested on: MRC-5 cells (human embryonal lung fibroblasts); assay: Cytotoxicity (CellTiter 96 cell viability) in the HCMV assay; details: MRC-5 cells; 6 days incubation; CellTiter 96

In the case of Cc1cn([C@H]2C[C@H](N=[N+]=[N-])[C@@H](CO)O2)c(=O)[nH]c1=O [AZT, reference compound], the “% Cell viability” value (CEM-SS cells) is reported as 97% and the “% CPE reduction in HIV-1 infected CEM-SS cells” value (HIV-1IIIB) is reported as 99%.
For CC[C@H](C)[C@H](NC(=O)[C@H](C)NC(=O)[C@@H](NC(=O)[C@H](CCC(N)=O)NC(=O)[C@@H]1CCCN1C(=O)[C@H](Cc1ccccc1)NC(=O)[C@@H](NC(=O)[C@H](Cc1c[nH]cn1)NC(=O)[C@H](Cc1ccccc1)NC(=O)[C@H](CCCCN)NC(=O)[C@H](CC(N)=O)NC(=O)[C@H](Cc1ccccc1)NC(=O)[C@H](CC(=O)O)NC(=O)[C@H](CCC(N)=O)NC(=O)[C@@H](NC(=O)[C@H](Cc1ccc(O)cc1)NC(=O)[C@@H](NC(=O)CNC(=O)[C@H](CC(C)C)NC(=O)[C@H](CCSC)NC(=O)[C@@H]1CSSC[C@H](N)C(=O)NCC(=O)N[C@@H](CC(N)=O)C(=O)N[C@@H](CC(C)C)C(=O)N[C@@H](CO)C(=O)N[C@@H]([C@@H](C)O)C(=O)N1)[C@@H](C)O)[C@@H](C)O)[C@@H](C)O)[C@@H](C)O)C(=O)NCC(=O)N[C@H](C(=O)NCC(=O)N[C@@H](C)C(=O)N1CCC[C@H]1C(N)=O)C(C)C [Calcitonin], the “% of induction” value (Human A549 cells [1]) was 2.9%, the “% plaque reduction” value (HCMV strain AD169) was 5.8% and the “% of SAC/IL2 induced control” value [2] was 92.6%. The “% of control phagocytosis” value (RAW 264.7 cells) was 102.9%, the “Cell cycle analysis G0/G1” value (Human A549 cells [3]) was 57.0 and the “Cell cycle analysis G2/M” value (Human A549 cells [3]) was 10.4. The “Cell cycle analysis S” value (Human A549 cells [3]) was 32.6, the “% of PHA induced Control” value [4] was 87.4% and the “IFNγ spleen cells; TH1 response (% of control)” value (spleen cells) was 63.7 % of control. The “IL-2 spleen cells (% of control)” value (spleen cells) was 110.1 % of control, the “IL-4 spleen cells; TH2 response (% of control)” value (spleen cells) was 0.0 % of control and the “IL-5 spleen cells; TH2 response (% of control)” value (spleen cells) was 60.2 % of control. The “TNF-a spleen cells; TH1 response (% of control)” value (spleen cells) was 116.4 % of control, the viability at 144 h [5] was 100% and the “% prevention of ceramide induced apoptosis” value (Human A549 cells [6]) was 32.7%. For the same molecule, the “% inhibition of tube formation” value (HUVEC) was 18%, the “% of LPS induction” value (TNF alpha) was 93.4% and the “% inhibition of migration” value [7] was 26%. For the same molecule, the “% inhibition of HBV replication in HEP G2 cells” value [8] was 31.0% and the “% CPE reduction in HIV-1 infected CEM-SS cells” value (HIV-1IIIB) was 0.0%.
In the case of Nc1nc(O)c2ncn(COC(CO)CO)c2n1 [Ganciclovir, reference compound], the “% Cell viability” value [9] is reported as 100%.
